Measurements: patent publication US12552775B2, “Compounds and uses thereof” (Foghorn Therapeutics Inc., priority 2020, dated 2026)

Assays:
HiBit-BRM fusion protein = biological target: T1, HiBit-BRM fusion protein (Homo sapiens, UniProt P51531); assay: HiBiT-BRM cell-based degradation assay (Nano-Glo HiBiT Lytic Detection, 24 h); conditions: stable HeLa cell line expressing HiBiT-BRM, top dose 30 μM
T1 construct: expressed in transfected cells
Procedure: (§1) Procedure: A stable HeLa cell line expressing HiBiT-BRM was generated. On day 0, 5000 cells were seeded in 40 μL of media into each well of 384-well cell culture plates. On day 1, cells were treated with 120 nL DMSO or 120 nL of 3-fold serially DMSO-diluted compounds (10 points in duplicate with 30 μM as final top dose). Subsequently plates were incubated for 24 h in a standard tissue culture incubator and equilibrated at room temperature for 15 minutes. Nano-Glo HiBiT Lytic Detection System (Promega N3050) reagent was freshly prepared and 20 ul was added to each well. Upon addition of this LgBit-containing reagent, the HiBiT and LgBiT proteins associate to form the luminescent NanoBiT luciferase. The plates were shaken for 10 minutes at room temperature and the bioluminescence read using an EnVision plate reader (PerkinElmer).
(§2) The degradation % was calculated using the following formula: % degradation=100%−100%×(Lumsample−LumLC)/(LumHC−LumLC). DMSO treated cells are employed as High Control (HC) and 2 μM of a known BRM/BRG1 degrader standard treated cells are employed as Low Control (LC).

[1] = biological target: T2, HiBit-BRG1 fusion protein (Homo sapiens, UniProt P51532); assay: HiBiT-BRG1 cell-based degradation assay (Nano-Glo HiBiT Lytic Detection, 24 h); conditions: stable HeLa cell line expressing HiBit-BRG1 and LgBit, top dose 30 μM, read-out: BRG1 HiBit Degradation Maximum (%)
T2 construct: expressed in transfected cells
T2 sequence (P51532 whole entry, the tested form may be a part): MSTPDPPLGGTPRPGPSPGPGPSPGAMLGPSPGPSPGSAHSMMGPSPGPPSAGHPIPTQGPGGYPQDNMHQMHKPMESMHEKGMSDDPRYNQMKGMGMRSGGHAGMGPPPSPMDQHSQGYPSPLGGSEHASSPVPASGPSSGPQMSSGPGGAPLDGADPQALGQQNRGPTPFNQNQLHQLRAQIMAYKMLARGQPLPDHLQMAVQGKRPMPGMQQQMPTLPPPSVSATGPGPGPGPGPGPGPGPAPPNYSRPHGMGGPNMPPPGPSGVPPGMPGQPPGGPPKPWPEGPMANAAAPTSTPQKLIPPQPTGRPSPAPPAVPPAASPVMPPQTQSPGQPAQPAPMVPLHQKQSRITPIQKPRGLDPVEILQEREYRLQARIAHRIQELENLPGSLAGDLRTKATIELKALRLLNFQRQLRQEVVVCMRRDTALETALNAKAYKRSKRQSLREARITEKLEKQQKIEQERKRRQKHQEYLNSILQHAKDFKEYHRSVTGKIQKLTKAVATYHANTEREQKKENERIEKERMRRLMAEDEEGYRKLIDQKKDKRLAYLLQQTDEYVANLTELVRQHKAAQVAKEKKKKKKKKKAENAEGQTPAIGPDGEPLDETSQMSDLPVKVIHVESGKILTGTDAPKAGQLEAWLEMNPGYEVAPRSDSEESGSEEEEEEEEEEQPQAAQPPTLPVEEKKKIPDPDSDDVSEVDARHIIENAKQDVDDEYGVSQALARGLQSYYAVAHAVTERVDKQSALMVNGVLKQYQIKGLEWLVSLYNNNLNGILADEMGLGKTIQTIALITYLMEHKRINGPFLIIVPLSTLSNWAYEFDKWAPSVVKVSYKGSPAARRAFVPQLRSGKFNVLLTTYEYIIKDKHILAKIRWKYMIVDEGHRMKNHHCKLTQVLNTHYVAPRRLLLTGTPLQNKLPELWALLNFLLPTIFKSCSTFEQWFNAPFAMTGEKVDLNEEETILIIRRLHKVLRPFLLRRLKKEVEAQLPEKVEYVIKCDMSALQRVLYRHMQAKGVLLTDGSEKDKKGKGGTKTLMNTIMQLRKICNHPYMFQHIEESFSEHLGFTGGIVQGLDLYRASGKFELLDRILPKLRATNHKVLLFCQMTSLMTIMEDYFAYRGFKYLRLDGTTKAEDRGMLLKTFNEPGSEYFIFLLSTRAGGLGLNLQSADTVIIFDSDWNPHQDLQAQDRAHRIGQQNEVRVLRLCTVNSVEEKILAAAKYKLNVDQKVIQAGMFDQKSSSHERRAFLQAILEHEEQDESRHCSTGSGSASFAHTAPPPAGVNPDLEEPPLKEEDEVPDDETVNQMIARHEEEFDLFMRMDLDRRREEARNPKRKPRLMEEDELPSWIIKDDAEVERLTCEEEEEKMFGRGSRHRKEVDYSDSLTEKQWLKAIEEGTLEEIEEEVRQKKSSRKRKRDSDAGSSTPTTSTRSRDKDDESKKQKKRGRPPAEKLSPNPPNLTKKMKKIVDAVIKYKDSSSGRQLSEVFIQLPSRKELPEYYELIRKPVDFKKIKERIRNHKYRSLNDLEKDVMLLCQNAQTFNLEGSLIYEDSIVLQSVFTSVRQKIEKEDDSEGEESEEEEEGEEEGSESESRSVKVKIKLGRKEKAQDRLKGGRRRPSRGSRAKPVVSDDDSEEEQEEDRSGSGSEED
Procedure: as §1
For measurement of BRG1 degradation, a stable HeLa cell line expressing HiBit-BRG1 and LgBit was generated. The same protocol as above was then followed.
as §2

T1 sequence (P51531 whole entry, the tested form may be a part): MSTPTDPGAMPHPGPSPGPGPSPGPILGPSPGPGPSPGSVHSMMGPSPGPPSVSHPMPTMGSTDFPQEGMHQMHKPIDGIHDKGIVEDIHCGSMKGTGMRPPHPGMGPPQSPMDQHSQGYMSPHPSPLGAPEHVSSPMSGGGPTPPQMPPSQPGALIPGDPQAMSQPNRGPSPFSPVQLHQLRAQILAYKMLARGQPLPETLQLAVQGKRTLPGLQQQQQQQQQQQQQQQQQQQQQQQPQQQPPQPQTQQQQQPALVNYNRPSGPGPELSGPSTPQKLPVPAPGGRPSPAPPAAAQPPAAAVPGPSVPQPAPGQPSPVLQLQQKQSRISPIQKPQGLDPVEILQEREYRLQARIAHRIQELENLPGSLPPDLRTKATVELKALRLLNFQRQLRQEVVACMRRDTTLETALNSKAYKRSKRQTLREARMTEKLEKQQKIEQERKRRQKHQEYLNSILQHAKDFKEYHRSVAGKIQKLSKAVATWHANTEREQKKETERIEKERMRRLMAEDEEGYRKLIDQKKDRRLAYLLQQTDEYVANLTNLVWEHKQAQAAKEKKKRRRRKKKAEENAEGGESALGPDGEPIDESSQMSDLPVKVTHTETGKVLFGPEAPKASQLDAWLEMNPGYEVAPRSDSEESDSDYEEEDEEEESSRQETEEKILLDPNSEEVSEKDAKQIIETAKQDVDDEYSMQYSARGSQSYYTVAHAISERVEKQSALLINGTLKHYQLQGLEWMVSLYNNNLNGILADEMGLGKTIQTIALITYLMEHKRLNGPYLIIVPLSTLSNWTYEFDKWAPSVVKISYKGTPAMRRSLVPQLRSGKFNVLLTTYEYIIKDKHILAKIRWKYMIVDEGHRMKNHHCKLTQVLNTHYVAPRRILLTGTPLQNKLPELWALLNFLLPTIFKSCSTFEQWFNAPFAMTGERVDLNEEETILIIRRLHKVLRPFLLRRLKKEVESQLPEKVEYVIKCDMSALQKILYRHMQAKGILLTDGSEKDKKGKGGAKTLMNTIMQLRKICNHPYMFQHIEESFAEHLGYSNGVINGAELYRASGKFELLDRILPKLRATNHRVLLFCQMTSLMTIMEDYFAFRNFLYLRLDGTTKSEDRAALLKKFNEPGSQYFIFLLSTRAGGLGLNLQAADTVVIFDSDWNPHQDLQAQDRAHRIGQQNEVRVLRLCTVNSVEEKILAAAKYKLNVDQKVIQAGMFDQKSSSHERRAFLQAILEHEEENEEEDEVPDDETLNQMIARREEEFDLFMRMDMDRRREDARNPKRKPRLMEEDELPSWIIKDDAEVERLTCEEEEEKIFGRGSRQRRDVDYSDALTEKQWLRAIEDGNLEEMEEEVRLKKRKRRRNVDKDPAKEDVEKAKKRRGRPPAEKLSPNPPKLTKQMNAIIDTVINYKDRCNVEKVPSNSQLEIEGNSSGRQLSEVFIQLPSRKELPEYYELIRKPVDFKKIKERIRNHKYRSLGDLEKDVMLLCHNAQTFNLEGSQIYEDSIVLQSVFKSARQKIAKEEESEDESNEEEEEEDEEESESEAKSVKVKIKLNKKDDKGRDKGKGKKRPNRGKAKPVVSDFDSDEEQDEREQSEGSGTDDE

| Structure (SMILES) | Dmax [1] [%] | BRM HiBit Degradation Maximum (%) (HiBit-BRM fusion protein) |
| --- | --- | --- |
| Nc1nnc(-c2ccccc2O)cc1OCC12CC(C(=O)NCCCCCCNc3ccc4c(c3)C(=O)N(C3CCC(=O)NC3=O)C4=O)(C1)C2 (centres unmarked) [Compound 64, 3-(((3-amino-6-(2-hydroxyphenyl)pyridazin-4-yl)oxy)methyl)-N-(6-((2-(2,6-dioxopiperidin-3-yl)-1,3-dioxoisoindolin-5-yl)amino)hexyl)bicyclo[1.1.1]pentane-1-carboxamide] | < 50 | C (“C” indicates maximum degradation < 50%) |
| Nc1nnc(-c2ccccc2O)cc1OCC12CC(C(=O)N3CC(Oc4ccc5c(c4)C(=O)N(C4CCC(=O)NC4=O)C5=O)C3)(C1)C2 (centres unmarked) [Compound 96, 5-((1-(3-(((3-amino-6-(2-hydroxyphenyl)pyridazin-4-yl)oxy)methyl)bicyclo[1.1.1]pentane-1-carbonyl)azetidin-3-yl)oxy)-2-(2,6-dioxopiperidin-3-yl)isoindoline-1,3-dione] | < 50 | C (“C” indicates maximum degradation < 50%) |
| Nc1nnc(-c2ccccc2O)cc1OCC12CC(C(=O)N3CCN(CCCCCOc4ccc5c(c4)C(=O)N(C4CCC(=O)NC4=O)C5=O)CC3)(C1)C2 (centres unmarked) [Compound 99, 5-((5-(4-(3-(((3-amino-6-(2-hydroxyphenyl)pyridazin-4-yl)oxy)methyl)bicyclo[1.1.1]pentane-1-carbonyl)piperazin-1-yl)pentyl)oxy)-2-(2,6-dioxopiperidin-3-yl)isoindoline-1,3-dione; formic acid] | < 50 | C (“C” indicates maximum degradation < 50%) |
| Nc1nnc(-c2ccccc2O)cc1OCC12CC(C(=O)NCCOCCOCCNC(=O)COc3ccc4c(c3)C(=O)N(C3CCC(=O)NC3=O)C4=O)(C1)C2 (centres unmarked) [Compound 91, 3-(((3-amino-6-(2-hydroxyphenyl)pyridazin-4-yl)oxy)methyl)-N-(2-(2-(2-(2-((2-(2,6-dioxopiperidin-3-yl)-1,3-dioxoisoindolin-5-yl)oxy)acetamido)ethoxy)ethoxy)ethyl)bicyclo[1.1.1]pentane-1-carboxamide] | < 50 | C (“C” indicates maximum degradation < 50%) |
| Nc1nnc(-c2ccccc2O)cc1OCC12CC(CNC(=O)CCN3CCN(c4ccc5c(c4)C(=O)N(C4CCC(=O)NC4=O)C5=O)CC3)(C1)C2 (centres unmarked) [Compound 16, N-((3-(((3-amino-6-(2-hydroxyphenyl)pyridazin-4-yl)oxy)methyl)bicyclo[1.1.1]pentan-1-yl)methyl)-3-(4-(2-(2,6-dioxopiperidin-3-yl)-1,3-dioxoisoindolin-5-yl)piperazin-1-yl) propanamide] | < 50 | C (“C” indicates maximum degradation < 50%) |
| Nc1nnc(-c2ccccc2O)cc1OCC12CC(CNC(=O)CCCCCCCCNc3ccc4c(c3)C(=O)N(C3CCC(=O)NC3=O)C4=O)(C1)C2 (centres unmarked) [Compound 9, N-[[3-([[3-amino-6-(2-hydroxyphenyl)pyridazin-4-yl]oxy]methyl)bicyclo[1.1.1]pentan-1-yl]methyl]-9-[[2-(2,6-dioxopiperidin-3-yl)-1,3-dioxoisoindol-5-yl]amino]nonanamide] | < 50 | C (“C” indicates maximum degradation < 50%) |
| Nc1nnc(-c2ccccc2O)cc1OCC12CC(C(=O)N3CC(CN4CCN(c5ccc6c(c5)C(=O)N(C5CCC(=O)NC5=O)C6=O)CC4)C3)(C1)C2 (centres unmarked) [Compound 100, 5-(4-((1-(3-(((3-amino-6-(2-hydroxyphenyl)pyridazin-4-yl)oxy)methyl)bicyclo[1.1.1]pentane-1-carbonyl)azetidin-3-yl)methyl)piperazin-1-yl)-2-(2,6-dioxopiperidin-3-yl)isoindoline-1,3-dione; formic acid] | < 50 | C (“C” indicates maximum degradation < 50%) |

Second part, led by results:

| Dmax [1] [%] | Structure (SMILES) | BRM HiBit Degradation Maximum (%) (HiBit-BRM fusion protein) |
| --- | --- | --- |
| > 50 | Nc1nnc(-c2ccccc2O)cc1OCC12CC(C(=O)N3CCC(CCCCN4CCN(c5ccc6c(c5)C(=O)N(C5CCC(=O)NC5=O)C6=O)CC4)CC3)(C1)C2 (centres unmarked) [Compound 95, 5-(4-(4-(1-(3-(((3-amino-6-(2-hydroxyphenyl)pyridazin-4-yl)oxy)methyl)bicyclo[1.1.1]pentane-1-carbonyl)piperidin-4-yl)butyl)piperazin-1-yl)-2-(2,6-dioxopiperidin-3-yl)isoindoline-1,3-dione; formic acid] | B (“B” indicates maximum degradation ≥ 50%) |
| < 50 | Nc1nnc(-c2ccccc2O)cc1OCCC12CC(NC(=O)CCN3CC4(C3)CN(c3ccc5c(c3)C(=O)N(C3CCC(=O)NC3=O)C5=O)C4)(C1)C2 (centres unmarked) [Compound 34, N-(3-(2-((3-amino-6-(2-hydroxyphenyl)pyridazin-4-yl)oxy)ethyl)bicyclo[1.1.1]pentan-1-yl)-3-(6-(2-(2,6-dioxopiperidin-3-yl)-1,3-dioxoisoindolin-5-yl)-2,6-diazaspiro[3.3]heptan-2-yl)propanamide] | C (“C” indicates maximum degradation < 50%) |
| < 50 | Cc1ncsc1-c1ccc(CNC(=O)[C@@H]2C[C@@H](O)CN2C(=O)[C@@H](NC(=O)COCCOCCOCCNC(=O)C23CC(COc4cc(-c5ccccc5O)nnc4N)(C2)C3)C(C)(C)C)cc1 [Compound 69, (2S,4R)-1-((S)-1-(3-(((3-amino-6-(2-hydroxyphenyl)pyridazin-4-yl)oxy)methyl)bicyclo[1.1.1]pentan-1-yl)-15-(tert-butyl)-1,13-dioxo-5,8,11-trioxa-2,14-diazahexadecan-16-oyl)-4-hydroxy-N-(4-(4-methylthiazol-5-yl)benzyl)pyrrolidine-2-carboxamide] | C (“C” indicates maximum degradation < 50%) |
| < 50 | Nc1nnc(-c2ccccc2O)cc1OCCC12CC(NC(=O)C3CCN(CCOc4ccc5c(c4)C(=O)N(C4CCC(=O)NC4=O)C5=O)CC3)(C1)C2 (centres unmarked) [Compound 32, N-(3-(2-((3-amino-6-(2-hydroxyphenyl)pyridazin-4-yl)oxy)ethyl)bicyclo[1.1.1]pentan-1-yl)-1-(2-((2-(2,6-dioxopiperidin-3-yl)-1,3-dioxoisoindolin-5-yl)oxy)ethyl)piperidine-4-carboxamide] | B (“B” indicates maximum degradation ≥ 50%) |
| < 50 | Nc1nnc(-c2ccccc2O)cc1OCC12CC(C(=O)NCCCC#Cc3cccc4c3C(=O)N(C3CCC(=O)NC3=O)C4=O)(C1)C2 (centres unmarked) [Compound 88, 3-(((3-amino-6-(2-hydroxyphenyl)pyridazin-4-yl)oxy)methyl)-N-(5-(2-(2,6-dioxopiperidin-3-yl)-1,3-dioxoisoindolin-4-yl)pent-4-yn-1-yl)bicyclo[1.1.1]pentane-1-carboxamide] | C (“C” indicates maximum degradation < 50%) |
| < 50 | Cc1ncsc1-c1ccc(CNC(=O)[C@@H]2C[C@@H](O)CN2C(=O)[C@@H](NC(=O)COCCOCCOCCOCC(=O)NC23CC(CCOc4cc(-c5ccccc5O)nnc4N)(C2)C3)C(C)(C)C)cc1 [Compound 45, N1-(3-(2-((3-amino-6-(2-hydroxyphenyl)pyridazin-4-yl)oxy)ethyl)bicyclo[1.1.1]pentan-1-yl)-N14-((S)-1-((2S,4R)-4-hydroxy-2-((4-(4-methylthiazol-5-yl)benzyl)carbamoyl)pyrrolidin-1-yl)-3,3-dimethyl-1-oxobutan-2-yl)-3,6,9,12-tetraoxatetradecanediamide] | B (“B” indicates maximum degradation ≥ 50%) |
